Measurements: US20240016943A1, “SYNTHETIC DNA BINDING DOMAINS AND USES THEREOF” (The University of Chicago, priority 2020, published 2024)
Starred links: 1 amine or outer side, 2 acyl side, 3 side chain; linkers in the order of their positions; H or OH if unused. Positions of bridges follow the written chain, without caps; N, C: chain ends. Non-standard residues stand in square brackets, D forms with d. Chains are numbered I, II in the order given. X1 = O=C1CC([*:2])C(=O)N1CC(=O)[*:1]; S5 = C=CCCC[C@](C)(N)C(=O)O; Nle = CCCC[C@H](N)C(=O)O; Aib = CC(C)(N)C(=O)O

Tests used:
[1] = Solubility in RPMI media+10% FBS; assay type: physicochemical; conditions: RPMI media with 10% FBS, read-out: soluble concentration
[2] = tested on: duplex DNA probes E1, E2, and E3; experiment: DNA probe specificity EMSA; assay type: binding; conditions: STR69 1 μM, STR640 125 nM; for DNA motif specificity: B-Z 100 nM, probes E1, E2, E3
Procedure: (§1) For direct DNA binding experiments, STRs were serial diluted (3-fold increments) at 2× concentration in 20 μL of 1× binding buffer (20 mM HEPES pH 8.0, 150 mM NaCl, 5% glycerol, 1 mM EDTA, 2 mM MgCl2, 0.5 mg/mL BSA, 1 mM DTT, 0.05% NP-40). 20 μL of 10 nM IRD700-labeled E-box probe in 1× binding buffer was added and samples were incubated for 30 min at RT followed by 15 min at 4° C. 3.5 μL of each reaction was loaded on a 6% acrylamide, 0.5× TBE gel equilibrated to 4° C. Higher affinity compounds (e.g., STR116 and STR118) were run at 10-fold lower concentration of compound and 0.5 nM final concentration of IRD-labeled oligo. Electrophoresis was carried out for 60 min at 110 V and 4° C. with 0.5× TBE+1 mM MgCl2 running buffer. Gels were pre-run at 110 V for 60 min prior to sample loading. For specificity experiments, 25 nM STR116, 10 nM STR118, or 5 nM MAX, and 5 nM labeled E-box probe were incubated with 0, 5, 25, 125, or 625 nM unlabeled competitor oligo for 30 min at RT in binding buffer. For protein competition experiments, 1 nM TRD-Ebox oligo was added to a mixture of STR (0-1 mM) and 30 nM protein (MAX or MYC:MAX) and incubated for 30 minutes at room temperature in binding buffer. For DNA probe specificity experiments B-Z (100 nM), STR69 (1 μM), and STR640 (125 nM) and MAX (10 nM) were incubated with 1 nM IRD-labeled oligo and 0.01 mg/ml salmon sperm DNA for 30 minutes at RT in binding buffer. All samples were equilibrated to 4° C. for 15 minutes before loading onto 6% gel. Gels were imaged using an Odyssey Li-COR. ImageJ was used to quantify band intensity and fraction bound DNA was calculated by dividing band intensity of bound DNA by the band intensity of the free DNA from a vehicle treated lane. A four-parameter dose-response curve fit to a plot of normalized fraction bound DNA vs. log B-Z concentration yields an IC50 which was reported as the apparent KD.

[3] = biological target: T1, Trypsin (Sus scrofa, UniProt P00761); experiment: In vitro trypsin stability assay; assay type: in vitro ADME
T1 construct: purchased Thermo-Pierce
Procedure: Each STR, 30 μM, was dissolved in 330 μL of 20 mM phosphate buffer pH 7.4 in a microcentrifuge tube and heated to 37° C. on a tabletop shaker (500 rpm). 30 μL of the reaction mixture was added to 60 uL of quenching solution (ACN+3% formic acid with 500 nM fmoc-lysine-OH internal standard) for 0 s timepoint sample. Thermo-Pierce MS-Grade Trypsin was added to a final concentration of 0.5 μg/ml and additional 30 μL aliquots were quenched at indicated timepoints. Quenched samples were cooled to 4° C. and centrifuged at 20,000×G for 3 min. […] Intact STR was calculated by normalizing the background subtracted integrated area under the curve for the EIC of (M+4H)/4, ±0.5 mass units, where M is mass and H is hydrogen ion, to the integrated area under the curve for the A280 peak of the internal standard. Fraction intact STR was calculated by dividing the intact STR by the normalized STR signal in the initial 0 s sample. GraphPad Prism was used to plot fraction intact STR vs time, and the proteolytic half-life was derived using a non-linear one-phase decay with the plateau constant set equal to zero.

[4] = tested on: E-box oligonucleotide probe; experiment: DNA competition (specificity) EMSA with unlabeled competitor oligo; assay type: binding; conditions: 25 nM STR116, 10 nM STR118, or 5 nM MAX; 0-625 nM competitor
Procedure: as §1

[5] = Circular dichroism spectroscopy; assay type: physicochemical; conditions: 25-85° C.
Procedure: Lyophilized STR samples were resuspended in 20 mM phosphate buffer pH 7.4 and diluted to 10 μM. Circular dichroism spectra were obtained on a Jasco J-170 using a 0.1 cm quartz cuvette with the following settings: wavelength, 260-180 nm; data pitch, 1.0 nm; scan rate, 50 nm min^−1; accumulations, 3; temperature, 25-85° C. with 6° C. increments. Means-Movement smoothing at the lowest setting was applied to the recorded data.

[6] = tested on: E-box probe; experiment: Conditioned media binding assay (retained E-box binding by EMSA); assay type: in vitro ADME; conditions: HeLa conditioned media, 37° C.
Procedure: HeLa cells were grown to 90% confluency in a 6 cm plate and the media was collected. 10 μM STR was resuspended in 0.5 mL of the conditioned media and incubated with gentle shaking at 37° C. At 0, 24 and 48 hrs., treatment media (2 μL) was diluted into 48 μL of 1× EMSA binding buffer containing 5 nM E-box probe. DNA binding was measured using an electrophoretic mobility shift assay. Fraction bound to E-box probe was calculated by dividing the band intensity of bound DNA by the sum of the bound DNA+free DNA.

[7] = tested on: E-box DNA; assay type: binding
Procedure: as §1, with “For DNA probe specificity experiments B-Z (100 nM), STR69 (1 μM), and STR640 (125 nM) and MAX (10 nM) were incubated with 1 nM IRD-labeled oligo and 0.01 mg/ml salmon sperm DNA for 30 minutes at RT in binding buffer. All samples were equilibrated to 4° C. for 15 minutes before loading onto 6% gel. Gels were imaged using an Odyssey Li-COR.” left out, “A four-parameter dose-response curve fit to a plot of normalized fraction bound DNA vs. log B-Z concentration yields an IC50 which was reported as the apparent KD.” left out

T1 sequence (P00761 9-231): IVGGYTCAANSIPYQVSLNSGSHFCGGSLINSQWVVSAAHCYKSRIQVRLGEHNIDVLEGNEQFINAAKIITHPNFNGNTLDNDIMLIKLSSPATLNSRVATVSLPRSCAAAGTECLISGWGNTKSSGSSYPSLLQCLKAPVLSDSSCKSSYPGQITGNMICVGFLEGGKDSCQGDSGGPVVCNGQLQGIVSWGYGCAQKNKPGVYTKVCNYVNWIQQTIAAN

I: Ac-PRFQSA[S5]DKR[S5]HHNALERKRRDHIKDSFHKLRDSVP-NH2 / II: Ac-SRAQILCKATEYIQRLR[S5]KIR[S5]LE-NH2 (staple I:7-I:11, II:18-II:22; linker I:30-II:7 via X1) [B11-Z80]
solubility [1]: > 75 µM

Ac-LRLKINSRERKRMHDLNIAMDK(ButMal)LREVMP-NH2 + Ac-SKIATLCLARNYILMLTNSL-NH2 (chain 1 XRLKINSRERKRMHDLNIAMDXLREVMX; chain 2 XKIATLCLARNYILMLTNSX; not fully specified; ButMal ligation; N-acetyl; C-terminal amides; (1)..(1) Xaa is acetyl-L; (22)..(22) Xaa is K(ButMal) (butyrlmaleimide-lysine); (28)..(28) Xaa is P-NH2; (1)..(1) Xaa is acetyl-S; (20)..(20) Xaa is L-NH2) [STR69]
DNA motif specificity [2]: show specificity for the OLIG2- and TFAP4-preferred motifs (target sequences in E3 and E2, respectively)
binding to the E-box motif [2]: minimal binding

Ac-RREIANSNERRRMQSINAGFQK(GlyMal)LKTLIP-NH2 + Ac-SKAAILCQTAEYIFRLRRKIHTLE-NH2 (chain 1 XREIANSNERRRMQSINAGFQXLKTLIX; chain 2 XKAAILCQTAEYIFRLRRKIHTLX; GlyMal ligation; N-acetyl; C-terminal amides; (1)..(1) Xaa is acetyl-R; (22)..(22) Xaa is K(GlyMal) (glycylmaleimide-lysine); (28)..(28) Xaa is P-NH2; (1)..(1) Xaa is acetyl-S; (24)..(24) Xaa is E-NH2) [STR640]
DNA motif specificity [2]: show specificity for the OLIG2- and TFAP4-preferred motifs (target sequences in E3 and E2, respectively)
binding to the E-box motif [2]: minimal binding

I: Ac-PRFQSA[S5]DKR[S5]HHNALERKRRDHIKDSFHKLRDSVP-NH2 / II: Ac-SR[Aib]QILCQATEYIQSLRR[S5]IHT[S5]E-NH2 (staple I:7-I:11, II:19-II:23; linker I:30-II:7 via X1) [B11-Z70]
solubility [1]: > 75 µM

MAX: Human MAX (residues 22-102) protein expressed with N-terminal hexahistidine tag, used in homodimeric form
half-life in trypsin stability assay ([3]; 0.5 μg/ml trypsin, 37° C.): 20 s
competition by DNA in which the E-box had been replaced entirely [4]: no competition
competition by DNA with mutation of the two central E-box nucleotides (CG to TA) [4]: some competition
competition of E-box probe binding by excess unlabeled E-box oligonucleotide [4]: effectively competed

I: Ac-PRFQSA[S5]DKR[S5]HHNALERKRRDHIKDSFHKLRDSVP-NH2 / II: Ac-SRAQILCKATEYIQYLR[S5]KIH[S5]LE-NH2 (staple I:7-I:11, II:18-II:22; linker I:30-II:7 via X1) [STR118, Ac-PRFQSA(S5)DKR(S5)HHNALERKRRDHIKDSFHK(GlyMal)LRDSVP-NH2 + Ac-SRAQILCKATEYIQYLR(S5)KIH(S5)LE-NH2]
thermal stability by temperature-dependent CD [5]: highly thermally stable, with retention of helicity even at 85 °C
stability in conditioned media (in words) [6]: increased stability in conditioned media

I: Ac-KRAHHNALERKRRDHIKDSFHKLRDSVP-NH2 / II: Ac-SRAQILCKATEYIQY[Nle]RRKN-NH2 (linker I:22-II:7 via X1) [B-Z]
trypsin proteolysis (in words) ([3]; LC-MS): rapidly proteolyzed at several positions
EMSA Fraction bound (sDBD = 500 nM) [7]: 100%

I: Ac-PRFQSA[S5]DKR[S5]HHNALERKRRDHIKDSFHKLRDSVP-NH2 / II: Ac-SR[Aib]QILCQATEYIQ[S5][Nle]RR[S5]LHTHE-NH2 (staple I:7-I:11, II:15-II:19; linker I:30-II:7 via X1) [STR116, Ac-PRFQSA(S5)DKR(S5)HHNALERKRRDHIKDSFHK(GlyMal)LRDSVP-NH2 + Ac-SR(Aib)QILCQATEYIQ(S5)(Nle)RR(S5)LHTHE-NH2]
stability in conditioned media (in words) [6]: increased stability in conditioned media
